Paper PMC10800876, “Evaluation of proline-rich antimicrobial peptides as potential lead structures for novel antimycotics against Cryptococcus neoformans” (Frontiers in Microbiology, 2024)
In brackets after ≈: the same amount, converted by molar mass. Read-outs that look alike come from different tables or passages of the source. Non-standard residues stand in square brackets, D forms with d. Residues, ends and D or L forms follow the SMILES beside them. Ac6c = NC1(C(=O)O)CCCCC1

What was measured:
[1] = tested on: C. neoformans strains 1841, H99, and KN99α; experiment: Broth microdilution assay (MIC); format: cell-based, Cryptococcus neoformans; conditions: strains 1841, H99, and KN99α, 24 h
[2] = tested on: C. neoformans 1841; experiment: Antifungal activity assay (CFU on SAB agar); format: cell-based, Cryptococcus neoformans; conditions: treatment 3 h, 30 °C, mean ± SD, n = 4; for cell count C. neoformans 1841, 24 h: CFU counted after 24 h; for cell count C. neoformans 1841, 48 h: CFU counted after 48 h
[3] = tested on: C. neoformans H99; experiment: Antifungal activity assay (CFU on SAB agar); format: cell-based, Cryptococcus neoformans; conditions: treatment 3 h, 30 °C, mean ± SD, n = 4; for cell count C. neoformans H99, 24 h: CFU counted after 24 h; for cell count C. neoformans H99, 48 h: CFU counted after 48 h
[4] = tested on: C. neoformans KN99α; experiment: Antifungal activity assay (CFU on SAB agar); format: cell-based, Cryptococcus neoformans; conditions: treatment 3 h, 30 °C, mean ± SD, n = 4; for cell count C. neoformans KN99α, 24 h: CFU counted after 24 h; for cell count C. neoformans KN99α, 48 h: CFU counted after 48 h
[5] = tested on: C. neoformans 1841; experiment: Time-kill assay; format: cell-based, Cryptococcus neoformans; conditions: 2.5 μmol/L, 30°C, triplicates
Description: The kinetic effects of the antifungal activity were determined by diluting overnight cultures to 5 × 10^4 CFU/mL with 50% SAB in phosphate buffer. Aqueous peptide solutions (20 μL) were added to the cell suspension (80 μL) to give a final peptide concentration of 2.5 μmol/L. Samples were incubated at 30°C on an orbital shaker (750 rpm, Titramax 1,000, Heidolph Instruments GmbH & Co. KG) for 24 h. Before incubation (0 min) and after 45 min, 90 min, 3 h, 6 h, and 24 h incubation, aliquots (10 μL) of samples were taken and diluted with phosphate buffer (10 mmol/L, pH 7.5) to observe countable cell colonies. Aliquots (100 μL) of the diluted cell suspensions were plated on SAB agar plates. Plates were incubated at 30°C and colonies were counted after 24 h.

[6] = tested on: C. neoformans strains 1841, H99, and KN99α; experiment: Antifungal activity assay (CFU); format: cell-based, Cryptococcus neoformans; conditions: peptide concentrations ≥2.5 μmol/L, no colonies visible even after 48 h
[7] = tested on: HepG2 and HEK293 cell lines; experiment: Cytotoxicity (MTT), for both cell lines; format: cell-based, human
Description: Human embryonic kidney (HEK293) and human hepatoma (HepG2) cells were cultured in Dulbecco’s modified Eagle’s/Ham’s F-12 medium (DMEM/F-12) containing 10% (v/v) fetal bovine serum and 1% (v/v) penicillin/streptomycin. Cells (20,000 in 200 μL per well) were seeded into a 96-well plate (polystyrene F-bottom, Greiner Bio-One GmbH) and incubated for 24 h (37°C, 5% CO2). Cells were washed with PBS (100 μL) and peptide solutions (0.6 g/L in DMEM/F-12) were added. The positive control was a dilution series from 12 to 1.5% (v/v) DMSO and the negative control was 12% (v/v) PBS. After incubation (37°C, 24 h, 5% CO2), the supernatant was discarded, fresh medium (90 μL/well) and MTT (10 μL/well, 5 g/L in PBS) were added, and the plate was incubated for 4 h (37°C, 5% CO2). A solution (100 μL) of sodium dodecyl sulfate (10% (v/v)) in hydrochloric acid (10 mmol/L) was added and the plate was incubated again for 24 h (37°C, 5% CO2). Absorbance was recorded at 570 nm relative to the reference at 650 nm ([…] ™ microplate reader). All samples were corrected for the background absorbance of the medium. Relative cell viability was calculated as the ratio of absorbances recorded for treated and untreated cells ([Kolano et al., 2021]; [Brakel et al., 2022a],[b]).

[8] = tested on: C. neoformans 1841 (serotype D)
[9] = tested on: C. neoformans H99 (serotype A)
[10] = tested on: C. neoformans KN99α (serotype A, mating type MATα)
[11] = tested on: C. neoformans; conditions: cited from earlier work
Excerpt: Moreover, these drugs have tremendous side effects due to their high toxicity, particularly kidney damage. In general, the dev ...

[12] = tested on: in vitro translation; conditions: ref Seefeldt et al., 2016; cited from earlier work
Description: The putative intracellular mode of action is a very significant finding, supported by CLSM images showing fluorescence in the cytoplasmic region after incubation of C. neoformans with Cf-labeled PrAMPs (Figure 4; Supplementary Figure S3). At this point, we can only speculate about potential targets, such as the ribosomes at the endoplasmic reticulum, which is the primary target of PrAMPs in bacteria, i.e., the 70S ribosome ([Krizsan et al., 2014], [2015a],[b]; [Seefeldt et al., 2015]; [Graf et al., 2017]). […] However, ...

## CC(C)C[C@H](NC(=O)[C@H](Cc1ccc(O)cc1)NC(=O)[C@@H]1CCCN1C(=O)[C@H](CCCNC(=N)N)NC(=O)[C@@H]1CCCN1C(=O)[C@H](CCCCN)NC(=O)[C@H](CCCCN)NC(=O)[C@@H]1CCCN1C(=O)[C@H](CCCNC(=N)N)NC(=O)C1(N)CCCCC1)C(=O)N1CCC[C@H]1C(=O)N[C@@H](CCCNC(=N)N)C(=O)N1CCC[C@H]1C(=O)N[C@@H](CCCNC(=N)N)C(=O)N1CCC[C@H]1C(=O)N1CCC[C@H]1C(=O)N[C@@H](CCCNC(=N)N)C(=O)N1CCC[C@H]1C(=O)N[C@H](C(=O)N[C@@H](CCCNC(=N)N)C(N)=O)C(C)C [Chex1Arg20 D4K] (H-[Ac6c]RPKKPRPYLPRPRPPRPVR-NH2; N-terminus assumed)
[1]
  MIC: 1.6 µM (≈ 3.98 µg/mL)
[2]; 0.25 µmol/L
  cell count C. neoformans 1841, 24 h: 0.4 ± 0.0 x 10^4 CFU/mL
  cell count C. neoformans 1841, 48 h: 2.2 ± 0.3 x 10^4 CFU/mL
[2]; 2.5 µmol/L
  cell count C. neoformans 1841, 24 h: 0.0 ± 0.0 x 10^4 CFU/mL
  cell count C. neoformans 1841, 48 h: 0.0 ± 0.0 x 10^4 CFU/mL
[2]; 25 µmol/L
  cell count C. neoformans 1841, 24 h: 0.0 ± 0.0 x 10^4 CFU/mL
  cell count C. neoformans 1841, 48 h: 0.0 ± 0.0 x 10^4 CFU/mL
[3]; 0.25 µmol/L
  cell count C. neoformans H99, 24 h: 2.7 ± 0.4 x 10^4 CFU/mL
  cell count C. neoformans H99, 48 h: 2.9 ± 0.4 x 10^4 CFU/mL
[3]; 2.5 µmol/L
  cell count C. neoformans H99, 24 h: 0.0 ± 0.0 x 10^4 CFU/mL
  cell count C. neoformans H99, 48 h: 0.1 ± 0.0 x 10^4 CFU/mL
[3]; 25 µmol/L
  cell count C. neoformans H99, 24 h: 0.0 ± 0.0 x 10^4 CFU/mL
  cell count C. neoformans H99, 48 h: 0.0 ± 0.0 x 10^4 CFU/mL
[4]; 0.25 µmol/L
  cell count C. neoformans KN99α, 24 h: 2.0 ± 1.2 x 10^4 CFU/mL
  cell count C. neoformans KN99α, 48 h: 2.2 ± 1.1 x 10^4 CFU/mL
[4]; 2.5 µmol/L
  cell count C. neoformans KN99α, 24 h: 0.1 ± 0.1 x 10^4 CFU/mL
  cell count C. neoformans KN99α, 48 h: 0.1 ± 0.1 x 10^4 CFU/mL
[4]; 25 µmol/L
  cell count C. neoformans KN99α, 24 h: 0.8 ± 1.3 x 10^4 CFU/mL
  cell count C. neoformans KN99α, 48 h: 0.8 ± 1.3 x 10^4 CFU/mL
[5]
  incubation time after which no viable cells were detected: 45 min
[6]
  suppression of fungi, colonies after 48 h: completely suppressed the fungi
[7]
  peptide concentration used in cytotoxicity test relative to MIC (safety margin): 150 fold
[8]; 1841 (serotype D, 24 h, pH 7.5)
  MIC (μmol/L) 1841 24 h: 1.6 µmol/L (≈ 3.98 µg/mL)
[8]; 1841 (serotype D, 48 h, pH 7.5)
  MIC (μmol/L) 1841 48 h: 1.6 µmol/L (≈ 3.98 µg/mL)
[9]; H99 (serotype A, 24 h)
  MIC (μmol/L) H99 24 h: 1.6 µmol/L (≈ 3.98 µg/mL)
[9]; H99 (serotype A, 48 h)
  MIC (μmol/L) H99 48 h: 1.6 µmol/L (≈ 3.98 µg/mL)
[10]; KN99α (serotype A, mating type MATα, 24 h)
  MIC (μmol/L) KN99α 24 h: 1.6 µmol/L (≈ 3.98 µg/mL)
[10]; KN99α (serotype A, mating type MATα, 48 h)
  MIC (μmol/L) KN99α 48 h: 1.6 µmol/L (≈ 3.98 µg/mL)

## Bac7 (1-35): mammalian PrAMP fragment, literature (RRIRPRPPRLPRPRPRPLPFPRPGPRPIPRPLPFP; Bactenecin 7; UniProt P19661 131-165, looked up, fragment)
[11]; ref Benincasa et al., 2004, Conti et al., 2013
  MIC against C. neoformans: ≥ 4 µM
[12]
  IC50 in eukaryotic in vitro translation system relative to the E. coli system: 2.5 fold

## N=C(N)NCCCCC(=O)Nc1cc(C(F)(F)F)cc(NC(=O)c2cc(C(=O)Nc3cc(C(F)(F)F)cc(NC(=O)CCCCNC(=N)N)c3O[C@@H]3CCNC3)ncn2)c1O[C@@H]1CCNC1 [brilacidin]
[11]; ref Dos Reis et al., 2023
  MIC against C. neoformans: 2.5 µM (≈ 2.34 µg/mL)
